From a melting point compilation (Tetko et al.; mined from patent text by program, amines drawn as free bases though some values may be those of a salt)

Structure (SMILES) | melting point [°C]
CSC1=Nc2cc(Cl)ccc2Nc2cscc21 | 111 to 113
COC(=O)c1ccc(-c2n[nH]c(-c3ccccc3)n2)cc1 | 243 to 244
Cc1nc(C(N)=O)c([N+](=O)[O-])n1-c1ccc(Cl)c(Cl)c1 | > 204
CCCC1=NC(=NOC(=O)NC)SC1(C)C | 112 to 114
CN(C)CC1CCc2cc(OCc3ccc(NC(=O)c4ccccc4)cc3)ccc2C1 (stereo unspecified) | 128 to 133
C[C@H](N)Cn1ncc2ccc3oc(C(=O)NCCCN4CCCC4=O)cc3c21 | 82
O=c1oc(-c2cccc(Cl)c2)nc2ccccc12 | 158 to 160
O=C(O)COc1cccc(CCc2nc(-c3cccs3)c(-c3cccs3)o2)c1 | 106 to 107
CCc1n[nH]c(-c2ccccc2)c1NC(=O)c1ccccc1 | 215 to 216
CCS(=O)CC(=O)c1ccc(-c2ccccc2F)cc1 (stereo unspecified) | 91 to 93
O=C(NCCN1CCC2(CC1)C(=O)NCN2c1ccccc1)c1cccs1 | 194
O=[N+]([O-])c1c(NCCO)cc(Cl)cc1NCCO | 154
CCCCCC(=O)Nc1nnc(C)s1 | 203
Oc1ccc(-c2noc3cc(O)ccc23)cc1 | 192 to 194
O=S(=O)(N[C@@H]1c2ccccc2CCC[C@H]1O)c1ccccc1 (relative stereo) | 128
CCOC(=O)c1ccc(C(=O)c2ccc(OC)cc2)cc1 | 74 to 81
O=C1N(Cc2cccc(-c3noc(C(F)(F)F)n3)c2)c2ccccc2C12COc1cc3c(cc12)CCO3 (stereo unspecified) | 182 to 188
CN(C)CCc1ccc(O)c2nc[nH]c12 | 245 to 252
Cc1ccc(N2CCN(CCCCl)CC2)cc1 | 34 to 36

Structure (SMILES) | melting point [°C]
O=C(CCc1ccc(O)cc1)OCCC(c1ccccc1)(c1ccccc1)c1ccccc1 | 105 to 107
Cc1cc(C(=O)c2cccc(Br)c2)c(O)cc1Cl | 115 to 117
O=C(NNC(=O)c1ccc([N+](=O)[O-])cc1)c1ccccc1 | 254 to 256
O=C1c2cccnc2C(=O)N1Cc1ccccc1 | 163 to 165
Cc1ccc2nc(-c3ccccc3)cc(Cl)c2c1 | 90 to 93
Cc1cn(-c2ccc(N)cc2)cn1 | 122 to 125
N#Cc1c(C(F)(F)F)nn(-c2c(Cl)cc(S(=O)(=O)C(F)(F)F)cc2Cl)c1[N+](=O)[O-] | 168 to 169
CN1C(=O)CN(c2cccc(O)c2)NC1=O | 95 to 96
O=C1C=C(O)C(=O)c2cc(-c3ccccc3)ccc21 | 190 to 192
CNc1cn(-c2cncnc2)nc1Cl | 111 to 114
COc1ccc2c(c1)C(=NO)CCO2 | 120 to 121
COCc1c(NC2CC2)c([N+](=O)[O-])cc(F)c1N1CCN(C)CC1 | 89 to 90
O=C(O)c1cc([N+](=O)[O-])cc([N+](=O)[O-])c1Nc1cc(-c2ccccc2)ccc1O | 215 to 217
CN1Cc2c(n(-c3ccc(F)cc3)c3ccc(F)cc23)C1 | 160 to 165
CC1(c2ccccc2)SC(=S)N(Nc2ccccc2)C1=NO (stereo unspecified) | 83 to 84
CCCOC(=Nc1sccc1C#N)OCCC | 65 to 67
Nc1ccc(N2CCN(c3ccncc3)CC2)cc1 | 204 to 208
CC(C)C#Cc1c(C#N)nn(-c2c(Cl)cc(C(F)(F)F)cc2Cl)c1N | 210 to 212
NC(=NO)c1cc2c(Oc3ccc(Cl)cc3)cncc2s1 | 194 to 196

Structure (SMILES) | melting point [°C]
CC(c1ccc(-c2ccccc2)c(F)c1)c1nc(CCCl)no1 (stereo unspecified) | 72 to 72.5
CCCCCN1Cc2cccc(S(N)(=O)=O)c2S1(=O)=O | 156 to 160
C=CCOc1cccc2c1ONC(=O)C2 | 174 to 175
O=C1Nc2ccccc2Cc2sccc21 | 225 to 236
Nc1cccc(-n2c(=O)c(Cc3cccnc3)nc3cccnc32)c1 | 168 to 170
Cc1nnc2n1-c1sc(CCC(=O)N3CCCCC3)cc1C(c1ccccc1Cl)=NC2C (stereo unspecified) | 157 to 160
CC1(C)OC(=O)Nc2ccc(-c3cc(F)cc(F)c3)cc21 | 218 to 219
Cc1c(C)c(C=O)c2c(c1C)CC(C)(C)O2 | 87 to 88
O=Cc1cn(Cc2ccc(OCc3csc(-c4ccccc4)n3)cc2)nc1-c1cccs1 | 115 to 116
O=C1N(Cc2nc(C(F)(F)F)cs2)c2ccccc2C12COc1cc3c(cc12)OCCO3 (stereo unspecified) | 169 to 170
Nc1ccc(N)c(I)c1 | 95 to 99
COc1cccc(-c2nc(-c3ccccc3)c3ncc(-c4cccc5ccccc45)cc3n2)c1 | 166 to 167
O=[N+]([O-])c1cnn2c1-c1ccccc1NC2c1ccc(Cl)cc1 (stereo unspecified) | 217 to 219
O=C1C(O)=C([N+](=O)[O-])C(=O)c2ccc(Br)cc21 | 172
Nc1ccc2c(c1)c(-c1ccc(CO)o1)nn2Cc1ccccc1 | 156
Cn1cccc1C(=O)c1cc([N+](=O)[O-])ccc1Cl | 108 to 110
CNC(=O)/C(=N/OC)c1ccccc1COc1ccc(C(F)(F)F)c(NC)n1 | 66 to 67
COc1c(Cc2ccccc2)cc(C(=O)c2cccs2)c2ccccc12 | 111 to 113
N#Cc1cccc(CSCCNC(=O)c2c(Cl)cccc2Cl)c1 | 123 to 125

Now from value to compound:

melting point [°C] | Structure (SMILES)
168 to 171 | CONC(=O)C(Cc1ccccc1)N(C)C(=O)C1CCCCC1C(=O)O (stereo unspecified)
96 to 98 | COC(=O)C(=O)CC(=O)c1ccc(C2CCCCC2)cc1
92 to 94 | CCCCSc1c2c(=O)n(C)c(=O)n(CC(C)C)c2cn1Cc1cccc2ccccc12
248 to 249 | CCn1c(=O)c2c(nc(/C=C/c3cc(OC)c(OC(C)=O)c(OC)c3)n2C)n(CC)c1=O
62 to 63 | CCCc1cc2cc(OCC(=O)OCC)c(Cl)c(Cl)c2s1
80 to 83 | CCCCC(=O)c1c(-c2ccc3cc(OCC(=O)OCC)ccc3c2)oc2ccc(Cl)cc12
121 to 125 | CCOC(=O)C1=C(C)NC(c2cncs2)=NC1c1ccc(F)cc1Cl (stereo unspecified)
150 | CC(C#Cc1ccc(Oc2cncc(Cl)c2)o1)N(O)C(N)=O (stereo unspecified)
113 to 116 | CC(C)(C)OC(=O)Nc1ccc(C#Cc2ccc(F)cc2F)cc1N
168 to 170 | O=C(c1cc(-c2ccc(OCc3ccccc3)cc2)c(=O)n2ccc3ccsc3c12)N(CCN1CCOCC1)c1ccccc1
209 to 210 | O=C(Nc1ccc(F)cc1)C1=C(C(=O)Nc2cc(OC3CCCC3)c(Cl)cc2F)CCCC1
202 to 204 | Cc1c(F)c(F)c(C(=O)NC2CCCCC2C)c(F)c1F (stereo unspecified)
128 to 130 | CNc1ccc(C(=N)NC(=O)OCc2ccccc2)c(F)c1
135 | CNCc1cccc(-c2ccc(CC3SC(=O)NC3=O)c(C)c2)c1 (stereo unspecified)
176 | O=C(c1ccc(Cl)cc1)c1cccc(NC(=O)c2ccn3c2CSC3c2cccnc2)c1 (stereo unspecified)
204 to 206 | Cc1ccccc1S(=O)(=O)NC1CCc2sc(C3=NNC(=O)CC3)cc2C1 (stereo unspecified)
168 to 170 | Cc1cc(-c2c(-c3ccc(S(C)(=O)=O)cc3)cnn(-c3ccc(F)cc3)c2=O)ccc1F
150 to 155 | COc1c(C)cc(N)c(CS(=O)c2nc3ccccc3[nH]2)c1C (stereo unspecified)
102 to 104 | CCCCCCOc1cc(-c2ccc3cc4c(cc3c2)C(C)(C)CCC4(C)C)ccc1C(=O)OC
206 | COc1cc(N)c(Cl)cc1C(=O)N[C@H]1CCN(CCNC(=O)N(C)C)C[C@H]1OC (relative stereo)
> 280 | Nc1c(F)c(N2Cc3cccc(Cl)c3C2)c(F)c2c1c(=O)c(C(=O)O)cn2C1CC1
180 to 181 | CCCC(=O)Nc1ccc(-c2cc(C(C)(C)C)c(O)c(C(C)(C)C)c2)cc1

melting point [°C] | Structure (SMILES)
142 to 144 | CCOC(=O)C1=C(C)NC(C)=C(C(=O)OCC)C1c1cccc(Cl)c1
136 to 138 | CC(O)c1coc2cc(NS(C)(=O)=O)c(Oc3ccccc3)cc2c1=O (stereo unspecified)
141 to 143 | Cc1c(N2CC(COC(=O)C(C)C)C(COC(=O)C(C)C)C2)c(F)cc2c(=O)c(C(=O)O)cn(C3CC3)c12 (stereo unspecified)
85 to 87.5 | CC(=O)CCc1c(C)c(OC(C)=O)c(C)c(C)c1OC(C)=O
210 | Cc1cc(C(=O)Nc2cccc(Oc3ccc4nc(NC(=O)CN(C)C)cn4n3)c2)n(C)n1
173 to 179 | COC(=O)c1ccccc1S(=O)(=O)NC(=O)Nc1nc(C)cc(OC)n1
203 to 205 | CCCCc1ncc(CC(NC(=O)CC)C(=O)O)n1Cc1ccccc1Cl (stereo unspecified)
210 | COc1c(N2CCC(N(C)C)C(C)C2)c(F)c(N)c2c(=O)c(C(=O)O)cn(C3CC3)c12 (stereo unspecified)
102 to 103 | CC(=O)N1CCN(c2cccc(F)n2)CC1
252 to 254 | CCOc1ccccc1-c1nc2c(C(N)=O)cccc2c(=O)[nH]1
121 to 122 | CCOc1nn(-c2ccc(C(F)(F)F)cn2)cc1CCCOc1cc(CCC(=O)O)n(-c2ccccc2)n1
93 to 95 | CC(=O)Oc1ccc(CCl)cc1C(OC(C)=O)OC(C)=O
85 to 88 | Cc1cc(SCc2cccc3[nH]c(-c4ccc(C(F)(F)F)cc4)cc23)ccc1OCC(=O)O
> 300 | Cn1c(=O)c2[nH]c(C=Cc3cccc(N)c3)nc2n(C)c1=O
163 to 165 | COc1c(C)cnc(Cn2cc(C#CCC(C)(C)O)c3c(Cl)nc(N)nc32)c1C
194 to 195 | O=c1c2cc3nnn(C4CC4)c(=O)c3cc2ncn1CCn1ncnn1
247 to 249 | CN(C)C1CCN(c2nc3c(cc2F)c(=O)c(C(=O)O)cn3CCF)C1 (stereo unspecified)
133 to 135 | CS(=O)(=O)c1ccc(-c2cnn(CC(F)(F)F)c(=O)c2Oc2cc(C(F)(F)F)ccc2F)cc1
269 to 270 | CCCCc1cccc2[nH]c(C(=O)O)cc(=O)c12
111 to 113 | COCc1cccc(C(=O)c2nc(OC)cc(OC)n2)c1[N+](=O)[O-]
144 | CCC1CC(=O)N(Cc2ccc(NC(=O)C(C)C)cc2)N=C1c1ccc(OC)c(OC)c1 (stereo unspecified)
190 to 192 | Cc1cc(C(=O)N(C)C)ccc1-c1ccc(C(=O)O)cc1
